Reference: US6017886A, “Use of NDF peptide as growth factor for sensory epithelium” (Amgen Inc., priority 1999, dated 2000)

What was measured:
Format in all cases: cell-based
[1] = system: utricular epithelium from seven day-old rats; test: BrdU incorporation (mitogenic activity) in primary culture of infant rat utricular sensory epithelium; conditions: for number of BrdU-positive nuclei per piece of epithelium: 50 ng/ml, seventy-two hours culture, infant (seven day-old) rat epithelium, control 50±7
Procedure: (§1) Sensory edithelial cells obtained from utricles in the inner ear of both seven day-old (infant) rats and six week-old (adult) rats were isolated with the use of thermolysin treatment; see Corwin et al., Abstracts of the Association for Research in Otolaryngology, Volume 18, page 87 (1995). All edges were trimmed away and the central portion of the epithelium was cut into quarters. Epithelial cells from the infant rats were cultured in DMEM/F12 with 10% FBS (Gibco BRL, Grand Island, N.Y.), and 3 micrograms per milliliter (μg/ml) of mitosis tracer BrdU (Aldrich Chemicals, Milwaukee, Wis.) for seventy-two hours, with or without 50 nanograms per milliliter (ng/ml) of the peptide of SEQ ID NO: 1 or 50 ng/ml of recombinant derived FGF-10, recombinant derived FGF-16, recombinant derived ciliary-derived neurotrophic factor (CNTF), recombinant derived neurotrophic growth facor (NGF), recombinant derived glial-derived neurotrophic factor (GDNF), recombinant derived keratinocyte growth factor (KGF), or a control (no growth factor present). The experiment was ended by fixing in 4% paraformaldehyde for one hour.
After several washes, the explants were immunostained for calretinin (a vestibular organ hair cell marker) using rabbit antiserum (SWant Swiss Antibodies, Belinzona, Switzerland), diluted 1:10,000. The secondary antibody was goat anti-rabbit immunoglobulin conjugated to biotin, diluted 1:1,000. Extensive washes were followed by incubating the explants with egg white avidin conjugated to Cy3, diluted 1:1,000. The explants were fixed again with paraformaldehyde as described above, then processed for BrdU immunostaining (a measure of cell proliferation) using standard immunostaining protocols. The mouse monoclonal ant-BrdU antibody was obtained from Caltag Laboratories of San Franscisco, Calif. The secondary antibody, a goat anti-mouse conjugated to FITC, was obtained from Antibodies, Inc. of Davis, Calif.

[2] = system: adult rat utricular epithelium; test: BrdU incorporation (mitogenic activity) in primary culture of adult rat utricular sensory epithelium; conditions: adult (six week-old) rat, thirteen days culture, factor added for the last five days, BrdU last two days
Procedure: as §1
For the adult rats, the total time for cell culture was thirteen days, with the peptide of SEQ ID NO: 1 or other growth factor being added for the last five days and the BrdU ([…]) for the last two days. The experiment was ended as above by fixing the explants in paraformaldehyde. […]

[3] = system: young rat utricular sensory epithelial cells; test: Comparison with other NDF/heregulins, BrdU-positive nuclei in primary culture; conditions: 50 ng/ml, FIG. 5
Procedure: as §1
After several washes, the explants were immunostained for calretinin (a vestibular organ hair cell marker) using rabbit antiserum (SWant Swiss Antibodies, Belinzona, Switzerland), diluted 1:10,000. […]

[4] = system: utricular cell line derived from a transgenic mouse; test: Cell proliferation by ELISA for BrdU in established utricular cell line; conditions: 50 ng/ml added twenty-four hours prior to fixation, BrdU final sixteen hours
Procedure: An established utricular cell line was derived from a transgenic mouse, using the procedure described by Gu et al. in Abstracts of the Association for Research in Otolaryngology, Volume 21, page 16 (1998). The cell line was cultured at 37° C. for three days in DMEM/F12 (Gibco BRL), containing N2 supplement (Sigma Chemical Company, St. Louis, Mo.) in a proportion of 1:100, under conditions restricting oncogene expression. For the treated group, fifty nanograms per milliliter of the peptide of SEQ ID NO: 1 were added twenty-four hours prior to fixation. Three micrograms per milliliter of BrdU (Aldrich Chemicals) were added for the final sixteen hours.
Cell proliferation was measured by ELISA for BrdU. Briefly, cells were fixed with 4% paraformaldehyde (Amersham, Life Sciences, Cleveland, Ohio) for one hour at room temperature. After treatment with 2N HCl for twenty minutes, the cells were washed and then sequentially incubated for one hour with a monocolonal antibody against BrdU (Caltag Laboratories) and horse anti-mouse antibody conjugated to biotin (Vector Laboratories, Burlingame, Calif.). After washing, the cells were further incubated with Europium streptavidin (Wallac Inc., Gaithersburg, Md.) diluted 1:1,000 and processed for time-resolved fluorescence in accordance with the manufacturer's recommendations. The signal was read on a Victor 1420 multi-label counter (Wallac Inc.).

Substance	number of BrdU-positive nuclei per piece of epithelium [1]	presence of BrdU-positive nuclei in supporting cells versus control (untreated) cells ([1]; infant rat sensory epithelium primary culture, FIGS. 4A and 4B)	increase in proliferation of adult rat sensory epithelial cells over the control group [2]	increase in induction of cell proliferation over the control [3]	ELISA reading (BrdU) relative to control (untreated) group [4]
NGF: recombinant derived neurotrophic growth facor (NGF) [reference compound]	50±9				
SHLVKCAEKEKTFCVNGGECFMVKDLSNPSRYLCKCQPGFTGARCQNYVMAS [SEQ ID NO: 1, hybrid form derived from the EGF-like domains of NDF-α and NDF-β]	397±33	very noticeable increase	32.5 fold	29 fold	1.7 times
FGF-16: recombinant derived FGF-16 [reference compound]	100±16				
